# According to US10041047B2, “Compositions and methods for epithelial stem cell expansion and culture” (The Brigham and Women's Hospital, Inc., priority 2013, dated 2018):
# System: Lgr5+ stem cells from the colon
# Assay: Colon crypt culture, Lgr5-GFP expression
# Format: cell-based, mouse
# Conditions: colon crypts (FIG. 3F)
# Text: FIGS. 3A and 3B depict colony numbers and live single cell numbers, respectively, from triplicate wells enumerated at each time point. Error bars indicate S.D. In FIG. 3A, the series are, from left to right, Day 0, Day 2, Day 4, Day 6, Day 8, and Day 10. FIG. 3C depicts FACS sorting of freshly isolated single Lgr5-GFP+ cells. A GFP^high single cell population was collected. Representative FACS analysis and the gating strategy to define the GFP+ cell population is shown. […] The GFP-population represents Lgr5- cells as well as Lgr5+/GFP- cells (i.e. GFP silenced stem cells), which is present in all unsorted crypt cultures, but not in sorted single Lgr5-GFP cell cultures (See FIG. 2C). A total of 10,000 live cells were analyzed for each sample. FIG. 3D depicts growth factor requirements for self-renewal of Lgr5+ stem cells in the CV culture condition. Crypts were cultured for 6 days in the presence of CHIR and VPA, with EGF, Noggin, R-spondin 1 and their combinations, as indicated. E: EGF (50 ng/ml); N: Noggin (100 ng/ml); R: R-spondin 1 (500 ng/ml); […] (1 mM). FIG. 3E depicts crypts cultured for 6 days in multiple conditions as indicated. GFP and brightfield images are shown. Scale bars: 200 μm. FIG. 3F depicts morphology and Lgr5-GFP expression of colon crypts cultured in ENR, ENR-C and ENR-CV conditions. […]
smiles,measurement,value
CCCC(CCC)C(=O)O [Valproic Acid],GFP expression of Lgr5+ stem cells from the colon,promoted GFP expression
